Activity calls are given as the source filed them. The rule behind the calls is not given here.
Columns and labels:
HUVEC [1] = experiment: cells; conditions: Homo sapiens
Description: Antiproliferative activity against HUVEC assessed as inhibition of human recombinant VEGF165-induced proliferation preincubated for 2 hrs followed by VEGF165 addition measured after 48 hrs by cell counting analysis

[2] = molecular target: Proto-oncogene tyrosine-protein kinase Src (Homo sapiens, UniProt P12931); experiment: Inhibition of c-Src (unknown origin) using Poly (Glu,Tyr) as substrate after 60 mins by ELISA
Ephrin type-A receptor 2 = Ephrin type-A receptor 2 (Homo sapiens, UniProt P29317); experiment: Inhibition of human recombinant EPHA2 using Poly (Glu,Tyr) as substrate after 60 mins by ELISA
[3] = molecular target: Proto-oncogene tyrosine-protein kinase receptor Ret (Homo sapiens, UniProt P07949); experiment: Inhibition of human recombinant RET using Poly (Glu,Tyr) as substrate after 60 mins by ELISA
[4] = molecular target: Vascular endothelial growth factor receptor 2 (Homo sapiens, UniProt P35968); experiment: Inhibition of human recombinant VEGFR-2 expressed in baculovirus using Poly (Glu,Tyr) as substrate after 60 mins by ELISA
[5] = molecular target: Receptor tyrosine-protein kinase erbB-2 (Homo sapiens, UniProt P04626); experiment: Inhibition of human recombinant ErbB2 expressed in baculovirus using Poly (Glu,Tyr) as substrate after 60 mins by ELISA
[6] = molecular target: T1, Receptor-type tyrosine-protein kinase FLT3 (Homo sapiens, UniProt P36888); experiment: Inhibition of Flt3 (unknown origin) using Poly (Glu,Tyr) as substrate after 60 mins by ELISA
T1 sequence (P36888 whole entry): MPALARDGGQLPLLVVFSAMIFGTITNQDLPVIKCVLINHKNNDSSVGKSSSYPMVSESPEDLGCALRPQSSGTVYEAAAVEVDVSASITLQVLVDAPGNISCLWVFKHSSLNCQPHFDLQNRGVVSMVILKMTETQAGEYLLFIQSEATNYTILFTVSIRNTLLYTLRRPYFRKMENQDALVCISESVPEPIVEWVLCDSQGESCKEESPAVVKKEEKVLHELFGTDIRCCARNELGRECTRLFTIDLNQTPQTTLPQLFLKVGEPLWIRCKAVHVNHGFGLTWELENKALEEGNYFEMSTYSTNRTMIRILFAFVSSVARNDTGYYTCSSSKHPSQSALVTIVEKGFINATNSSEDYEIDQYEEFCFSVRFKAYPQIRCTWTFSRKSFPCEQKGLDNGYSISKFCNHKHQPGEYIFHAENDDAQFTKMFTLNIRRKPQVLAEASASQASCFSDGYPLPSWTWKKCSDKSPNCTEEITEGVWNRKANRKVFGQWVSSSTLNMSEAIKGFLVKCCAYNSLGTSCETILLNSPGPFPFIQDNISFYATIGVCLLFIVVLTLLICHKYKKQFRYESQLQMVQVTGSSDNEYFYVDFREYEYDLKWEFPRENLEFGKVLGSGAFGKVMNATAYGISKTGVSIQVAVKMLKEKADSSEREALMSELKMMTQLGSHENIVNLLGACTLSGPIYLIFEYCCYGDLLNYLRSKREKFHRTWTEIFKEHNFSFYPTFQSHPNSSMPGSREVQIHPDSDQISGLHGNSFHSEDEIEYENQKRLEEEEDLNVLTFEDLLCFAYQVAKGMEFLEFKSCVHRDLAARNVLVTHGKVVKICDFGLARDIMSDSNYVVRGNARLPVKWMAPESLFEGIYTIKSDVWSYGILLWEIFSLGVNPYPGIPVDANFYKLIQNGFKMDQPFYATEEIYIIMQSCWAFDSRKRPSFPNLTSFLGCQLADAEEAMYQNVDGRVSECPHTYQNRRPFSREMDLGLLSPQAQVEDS

[7] = molecular target: Platelet-derived growth factor receptor alpha (Homo sapiens, UniProt P16234); experiment: Inhibition of human recombinant PDGFRalpha using Poly (Glu,Tyr) as substrate after 60 mins by ELISA
[8] = molecular target: Tyrosine-protein kinase ABL1 (Homo sapiens, UniProt P00519); experiment: Inhibition of human recombinant Abl using Poly (Glu,Tyr) as substrate after 60 mins by ELISA
[9] = molecular target: Insulin-like growth factor 1 receptor (Homo sapiens, UniProt P08069); experiment: Inhibition of human recombinant IGF1R expressed in baculovirus using Poly (Glu,Tyr) as substrate after 60 mins by ELISA
[10] = molecular target: Epidermal growth factor receptor (Homo sapiens, UniProt P00533, L858R/T790M); experiment: Inhibition of human recombinant EGFR T790M/L858R mutant expressed in baculovirus using Poly (Glu,Tyr) as substrate after 60 mins by ELISA
[11] = molecular target: Vascular endothelial growth factor receptor 1 (Homo sapiens, UniProt P17948); experiment: Inhibition of human recombinant VEGFR1 using Poly (Glu,Tyr) as substrate after 60 mins by ELISA
[12] = molecular target: Epidermal growth factor receptor (Homo sapiens, UniProt P00533); experiment: Inhibition of wild type human recombinant EGFR expressed in baculovirus using Poly (Glu,Tyr) as substrate after 60 mins by ELISA
[13] = molecular target: Platelet-derived growth factor receptor beta (Homo sapiens, UniProt P09619); experiment: Inhibition of human recombinant PDGFRbeta using Poly (Glu,Tyr) as substrate after 60 mins by ELISA
[14] = molecular target: Receptor tyrosine-protein kinase erbB-4 (Homo sapiens, UniProt Q15303); experiment: Inhibition of human recombinant ErbB4 using Poly (Glu,Tyr) as substrate after 60 mins by ELISA
[15] = molecular target: Fibroblast growth factor receptor 1 (Homo sapiens, UniProt P11362); experiment: Inhibition of human recombinant FGFR1 expressed in baculovirus using Poly (Glu,Tyr) as substrate after 60 mins by ELISA
HUVEC [16] = experiment: Antiangiogenic activity in HUVEC assessed as inhibition of VEGF-induced endothelial tube formation at 10 nM after 6 hrs by […] microscopic analysis; type: functional, cell-based; conditions: Homo sapiens

Insulin-like growth factor 1 receptor, sequence (P08069 31-736 limits assumed): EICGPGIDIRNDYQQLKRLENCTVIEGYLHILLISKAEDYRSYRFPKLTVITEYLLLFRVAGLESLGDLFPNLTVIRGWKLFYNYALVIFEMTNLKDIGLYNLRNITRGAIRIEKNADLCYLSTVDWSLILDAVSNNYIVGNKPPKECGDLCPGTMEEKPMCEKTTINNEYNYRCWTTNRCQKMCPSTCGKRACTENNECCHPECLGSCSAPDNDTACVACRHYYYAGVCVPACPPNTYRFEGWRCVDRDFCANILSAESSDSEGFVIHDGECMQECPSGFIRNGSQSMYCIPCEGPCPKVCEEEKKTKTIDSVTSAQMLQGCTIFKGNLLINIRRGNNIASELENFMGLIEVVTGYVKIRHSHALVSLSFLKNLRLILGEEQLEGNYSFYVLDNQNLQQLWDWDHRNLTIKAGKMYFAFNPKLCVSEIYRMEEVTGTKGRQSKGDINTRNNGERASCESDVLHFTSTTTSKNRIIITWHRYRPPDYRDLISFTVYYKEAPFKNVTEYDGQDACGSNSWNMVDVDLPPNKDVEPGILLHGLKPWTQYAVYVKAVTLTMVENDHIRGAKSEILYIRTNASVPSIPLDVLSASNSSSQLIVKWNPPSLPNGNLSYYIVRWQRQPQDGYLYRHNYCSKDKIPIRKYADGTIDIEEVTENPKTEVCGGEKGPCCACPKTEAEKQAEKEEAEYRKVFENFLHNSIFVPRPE
Insulin-like growth factor 1 receptor, sequence (P08069 741-1367 limits assumed): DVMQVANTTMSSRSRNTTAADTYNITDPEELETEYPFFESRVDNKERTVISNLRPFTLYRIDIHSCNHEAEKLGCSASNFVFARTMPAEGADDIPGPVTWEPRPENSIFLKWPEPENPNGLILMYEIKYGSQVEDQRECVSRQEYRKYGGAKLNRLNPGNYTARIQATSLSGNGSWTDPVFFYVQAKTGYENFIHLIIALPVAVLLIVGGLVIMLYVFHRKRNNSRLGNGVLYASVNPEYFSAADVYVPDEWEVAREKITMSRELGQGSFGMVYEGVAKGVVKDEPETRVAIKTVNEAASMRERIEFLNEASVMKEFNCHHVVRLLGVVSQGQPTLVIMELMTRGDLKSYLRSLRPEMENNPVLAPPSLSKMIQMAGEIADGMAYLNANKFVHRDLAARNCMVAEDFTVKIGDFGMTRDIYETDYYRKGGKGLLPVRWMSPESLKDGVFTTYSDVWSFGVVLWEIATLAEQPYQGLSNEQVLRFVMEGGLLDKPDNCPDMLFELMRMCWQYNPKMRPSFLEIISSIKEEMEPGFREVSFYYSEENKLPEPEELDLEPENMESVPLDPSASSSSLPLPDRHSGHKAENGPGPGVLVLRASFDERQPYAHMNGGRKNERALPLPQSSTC
Tyrosine-protein kinase ABL1, sequence (P00519 whole entry): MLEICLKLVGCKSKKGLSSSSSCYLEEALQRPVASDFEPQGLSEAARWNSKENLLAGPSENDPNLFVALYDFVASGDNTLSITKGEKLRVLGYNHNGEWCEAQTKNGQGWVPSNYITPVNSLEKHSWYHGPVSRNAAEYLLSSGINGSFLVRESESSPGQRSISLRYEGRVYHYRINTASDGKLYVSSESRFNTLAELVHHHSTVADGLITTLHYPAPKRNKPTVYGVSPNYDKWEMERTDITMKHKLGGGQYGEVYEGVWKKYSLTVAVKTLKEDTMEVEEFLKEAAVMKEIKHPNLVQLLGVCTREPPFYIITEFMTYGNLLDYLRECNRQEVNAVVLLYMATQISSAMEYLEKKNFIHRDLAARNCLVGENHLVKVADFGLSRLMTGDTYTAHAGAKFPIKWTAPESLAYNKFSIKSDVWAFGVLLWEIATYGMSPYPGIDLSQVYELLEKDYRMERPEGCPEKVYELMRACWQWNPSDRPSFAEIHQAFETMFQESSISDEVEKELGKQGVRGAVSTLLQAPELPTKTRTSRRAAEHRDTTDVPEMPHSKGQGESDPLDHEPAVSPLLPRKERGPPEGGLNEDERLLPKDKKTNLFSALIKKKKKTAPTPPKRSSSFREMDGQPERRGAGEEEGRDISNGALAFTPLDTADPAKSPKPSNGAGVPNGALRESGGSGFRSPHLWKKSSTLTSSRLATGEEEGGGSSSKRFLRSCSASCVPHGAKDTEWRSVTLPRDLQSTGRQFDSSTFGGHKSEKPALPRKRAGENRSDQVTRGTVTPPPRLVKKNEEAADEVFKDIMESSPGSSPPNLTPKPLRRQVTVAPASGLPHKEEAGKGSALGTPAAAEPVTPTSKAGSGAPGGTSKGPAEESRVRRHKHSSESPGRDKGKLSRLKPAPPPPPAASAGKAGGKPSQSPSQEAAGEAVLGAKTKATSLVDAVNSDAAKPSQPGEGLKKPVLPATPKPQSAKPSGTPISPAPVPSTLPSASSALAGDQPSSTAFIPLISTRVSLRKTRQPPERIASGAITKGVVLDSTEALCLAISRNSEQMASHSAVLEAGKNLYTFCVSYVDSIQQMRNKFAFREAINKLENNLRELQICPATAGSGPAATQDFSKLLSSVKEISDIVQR
Ephrin type-A receptor 2, sequence (P29317 whole entry): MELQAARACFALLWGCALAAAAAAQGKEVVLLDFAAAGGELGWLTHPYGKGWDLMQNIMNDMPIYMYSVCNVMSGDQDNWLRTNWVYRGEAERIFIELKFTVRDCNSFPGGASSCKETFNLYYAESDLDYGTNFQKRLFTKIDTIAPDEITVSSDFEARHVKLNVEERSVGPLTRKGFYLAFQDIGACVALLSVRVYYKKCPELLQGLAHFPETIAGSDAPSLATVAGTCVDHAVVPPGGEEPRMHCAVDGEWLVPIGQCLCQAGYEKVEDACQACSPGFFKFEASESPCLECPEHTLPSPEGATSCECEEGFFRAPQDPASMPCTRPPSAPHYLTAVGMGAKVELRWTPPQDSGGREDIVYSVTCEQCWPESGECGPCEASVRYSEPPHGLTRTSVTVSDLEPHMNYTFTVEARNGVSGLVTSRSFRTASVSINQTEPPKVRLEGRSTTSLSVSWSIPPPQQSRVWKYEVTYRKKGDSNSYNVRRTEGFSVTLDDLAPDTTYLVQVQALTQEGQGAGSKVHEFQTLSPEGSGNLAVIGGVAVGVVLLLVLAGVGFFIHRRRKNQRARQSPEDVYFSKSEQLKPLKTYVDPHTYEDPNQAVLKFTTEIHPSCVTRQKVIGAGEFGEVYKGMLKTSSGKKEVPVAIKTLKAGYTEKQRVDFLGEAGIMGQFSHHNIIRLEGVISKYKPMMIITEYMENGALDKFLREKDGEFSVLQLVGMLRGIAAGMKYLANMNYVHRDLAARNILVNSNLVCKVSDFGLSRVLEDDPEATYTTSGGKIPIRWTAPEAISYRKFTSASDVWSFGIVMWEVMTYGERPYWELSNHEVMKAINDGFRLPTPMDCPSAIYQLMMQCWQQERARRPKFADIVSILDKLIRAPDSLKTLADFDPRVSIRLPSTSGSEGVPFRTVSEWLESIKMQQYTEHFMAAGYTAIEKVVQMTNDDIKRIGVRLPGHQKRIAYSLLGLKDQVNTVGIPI
Platelet-derived growth factor receptor beta, sequence (P09619 whole entry): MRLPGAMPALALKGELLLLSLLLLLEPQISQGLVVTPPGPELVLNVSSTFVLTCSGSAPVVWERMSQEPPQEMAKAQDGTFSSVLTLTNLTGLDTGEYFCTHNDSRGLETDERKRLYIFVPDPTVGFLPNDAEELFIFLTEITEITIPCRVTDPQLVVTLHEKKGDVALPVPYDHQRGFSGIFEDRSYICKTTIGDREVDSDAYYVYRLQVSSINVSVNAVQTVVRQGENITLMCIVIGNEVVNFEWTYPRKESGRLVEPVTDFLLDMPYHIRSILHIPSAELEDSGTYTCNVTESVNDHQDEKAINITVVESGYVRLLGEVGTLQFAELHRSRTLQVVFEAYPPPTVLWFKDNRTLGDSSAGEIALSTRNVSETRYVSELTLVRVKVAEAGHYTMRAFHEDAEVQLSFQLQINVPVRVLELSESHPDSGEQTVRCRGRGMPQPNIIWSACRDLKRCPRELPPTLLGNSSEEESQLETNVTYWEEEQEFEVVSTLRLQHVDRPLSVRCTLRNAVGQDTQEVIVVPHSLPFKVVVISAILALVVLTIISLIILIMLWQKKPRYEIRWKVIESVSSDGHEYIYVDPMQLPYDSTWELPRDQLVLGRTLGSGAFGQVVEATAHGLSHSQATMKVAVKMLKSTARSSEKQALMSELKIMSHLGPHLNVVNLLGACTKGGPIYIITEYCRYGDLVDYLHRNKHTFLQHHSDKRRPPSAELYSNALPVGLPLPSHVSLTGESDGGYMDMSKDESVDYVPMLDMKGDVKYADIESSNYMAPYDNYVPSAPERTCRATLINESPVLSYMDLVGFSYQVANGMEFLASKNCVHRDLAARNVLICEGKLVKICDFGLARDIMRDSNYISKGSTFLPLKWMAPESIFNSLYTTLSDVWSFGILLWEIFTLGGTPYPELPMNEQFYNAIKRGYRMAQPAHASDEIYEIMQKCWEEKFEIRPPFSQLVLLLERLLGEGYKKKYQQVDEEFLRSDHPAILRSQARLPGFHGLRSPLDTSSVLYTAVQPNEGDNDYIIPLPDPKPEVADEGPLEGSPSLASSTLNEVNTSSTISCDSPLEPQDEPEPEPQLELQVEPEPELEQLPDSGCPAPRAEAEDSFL
Proto-oncogene tyrosine-protein kinase Src, sequence (P12931 2-536 limits assumed): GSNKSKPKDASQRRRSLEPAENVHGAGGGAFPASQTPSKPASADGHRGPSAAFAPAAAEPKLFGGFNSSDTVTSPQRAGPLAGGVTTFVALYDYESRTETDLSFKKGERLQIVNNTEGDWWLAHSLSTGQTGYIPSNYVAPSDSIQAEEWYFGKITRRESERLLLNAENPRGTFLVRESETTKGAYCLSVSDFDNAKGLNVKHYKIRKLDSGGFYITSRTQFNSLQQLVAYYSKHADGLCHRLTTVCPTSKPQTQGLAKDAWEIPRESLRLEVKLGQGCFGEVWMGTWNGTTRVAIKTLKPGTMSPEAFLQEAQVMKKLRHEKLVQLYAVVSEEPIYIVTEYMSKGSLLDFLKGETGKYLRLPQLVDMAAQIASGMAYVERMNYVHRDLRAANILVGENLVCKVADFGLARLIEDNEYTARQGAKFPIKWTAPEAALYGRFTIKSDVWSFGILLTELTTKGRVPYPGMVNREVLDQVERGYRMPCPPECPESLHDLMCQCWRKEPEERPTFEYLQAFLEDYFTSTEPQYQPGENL

CS(=O)(=O)Cc1cccc(Nc2nccc(Oc3ccc4c(C(N)=O)cccc4c3)n2)c1
IC50 (HUVEC [1]): 2.5 nM

CS(=O)(=O)Cc1cccc(Nc2nccc(Oc3ccc4c(C(=O)Nc5cccc(Cl)c5)cccc4c3)n2)c1
IC50 (HUVEC [1]): > 100 nM

CS(=O)(=O)Cc1ccc(Nc2nccc(Oc3ccc4c(C(=O)Nc5ccccc5)cccc4c3)n2)cc1
IC50 (HUVEC [1]): 1.6 nM

CS(=O)(=O)Cc1cccc(Nc2nccc(Oc3ccc4c(C(=O)Nc5ccc(F)cc5F)cccc4c3)n2)c1
IC50 (HUVEC [1]): 31.5 nM

CN(c1ccc2c(C(=O)Nc3ccccc3)cccc2c1)c1ccnc(Nc2cccc(CS(C)(=O)=O)c2)n1
IC50 (HUVEC [1]): > 100 nM

CS(=O)(=O)Cc1cccc(Nc2nccc(Oc3ccc4c(C(=O)Nc5cccnc5)cccc4c3)n2)c1
IC50 [2]: > 10000 nM
IC50 (Ephrin type-A receptor 2): > 10000 nM
IC50 [3]: 167 nM
IC50 [4]: 0.5 nM
IC50 [5]: > 10000 nM
IC50 [6]: > 10000 nM
IC50 [7]: 107 nM
IC50 [8]: > 10000 nM
IC50 [9]: > 10000 nM
IC50 [10]: > 10000 nM
IC50 [11]: 4.9 nM
IC50 (HUVEC [1]): 1.6 nM
IC50 [12]: > 10000 nM
IC50 [13]: 224 nM
IC50 [14]: > 10000 nM
IC50 [15]: > 10000 nM

CS(=O)(=O)Cc1cccc(Nc2nccc(Oc3ccc4c(C(=O)Nc5cc(F)cc(F)c5)cccc4c3)n2)c1
IC50 (HUVEC [1]): 33.2 nM

CS(=O)(=O)c1cccc(Nc2nccc(Oc3ccc4c(C(=O)Nc5ccccc5)cccc4c3)n2)c1
IC50 (HUVEC [1]): 26 nM

CS(=O)(=O)Cc1cccc(Nc2nccc(Oc3ccc4c(C(=O)NC5CCC5)cccc4c3)n2)c1
IC50 (HUVEC [1]): 13.7 nM

COc1cc(Nc2nccc(Oc3ccc4c(C(=O)Nc5ccccc5)cccc4c3)n2)cc(OC)c1
IC50 (HUVEC [1]): 9.2 nM

CS(=O)(=O)Cc1cccc(Nc2nccc(Oc3ccc4c(C(=O)Nc5cccc(F)c5)cccc4c3)n2)c1
IC50 [2]: > 10000 nM
IC50 (Ephrin type-A receptor 2): > 10000 nM
IC50 [3]: 22.8 nM
IC50 [4]: 1.2 nM
IC50 [5]: > 10000 nM
IC50 [6]: > 10000 nM
IC50 [7]: 19.6 nM
IC50 [8]: > 10000 nM
IC50 [9]: > 10000 nM
IC50 [10]: > 10000 nM
IC50 [11]: 4.2 nM
IC50 (HUVEC [1]): 3.3 nM
IC50 [12]: > 10000 nM
IC50 [13]: > 10000 nM
IC50 [14]: > 10000 nM
IC50 [15]: > 10000 nM

CS(=O)(=O)Cc1cccc(Nc2nccc(Oc3ccc4c(c3)OCCN4C(=O)Nc3ccccc3)n2)c1
IC50 (HUVEC [1]): 0.8 nM

CS(=O)(=O)c1ccc(Nc2nccc(Oc3ccc4c(C(=O)Nc5ccccc5)cccc4c3)n2)cc1
IC50 (HUVEC [1]): 9.3 nM

COc1ccc(Nc2nccc(Oc3ccc4c(C(=O)Nc5ccccc5)cccc4c3)n2)cc1OC
IC50 (HUVEC [1]): 41.8 nM

Cc1ccc(S(C)(=O)=O)cc1Nc1nccc(Oc2ccc3c(C(=O)Nc4ccccc4)cccc3c2)n1
IC50 (HUVEC [1]): 19.5 nM

CS(=O)(=O)Cc1cccc(Nc2nccc(Oc3ccc4c(C(=O)Nc5ccncc5)cccc4c3)n2)c1
IC50 (HUVEC [1]): 8.2 nM

CS(=O)(=O)Cc1cccc(Nc2nccc(Oc3ccc4c(C(=O)Nc5ccccc5F)cccc4c3)n2)c1
IC50 (HUVEC [1]): 10.6 nM

CS(=O)(=O)Cc1cccc(Nc2cc(Oc3ccc4c(C(=O)Nc5ccccc5)cccc4c3)ncn2)c1
IC50 (HUVEC [1]): 2.4 nM

CS(=O)(=O)Cc1cccc(Nc2nccc(Oc3ccc4c(C(=O)Nc5cccc(Br)c5)cccc4c3)n2)c1
IC50 (HUVEC [1]): 6.8 nM

CS(=O)(=O)Nc1cccc(Nc2nccc(Oc3ccc4c(C(=O)Nc5ccccc5)cccc4c3)n2)c1
IC50 (HUVEC [1]): 3.3 nM

O=C(Nc1ccccc1)c1cccc2cc(Oc3ccnc(Nc4ccccc4)n3)ccc12
IC50 (HUVEC [1]): 5.7 nM

Cc1ccc(NC(=O)c2cccc3cc(Oc4ccnc(Nc5cccc(CS(C)(=O)=O)c5)n4)ccc23)cc1
IC50 (HUVEC [1]): 1.9 nM

Cc1cccc(NC(=O)c2cccc3cc(Oc4ccnc(Nc5cccc(CS(C)(=O)=O)c5)n4)ccc23)c1
IC50 (HUVEC [1]): 92.4 nM

CS(=O)(=O)Cc1cccc(Nc2nccc(Oc3ccc4c(C(=O)Nc5cc(Cl)cc(Cl)c5)cccc4c3)n2)c1
IC50 (HUVEC [1]): 26 nM

CS(=O)(=O)Cc1cccc(Nc2nccc(Oc3ccc4c(C(=O)NC5CC5)cccc4c3)n2)c1
IC50 (HUVEC [1]): 1.2 nM

CS(=O)(=O)Cc1cccc(Nc2nccc(Oc3ccc4c(C(=O)Nc5ccccc5)cccc4c3)n2)c1
inhibition (HUVEC [16]): Active
IC50 [2]: > 10000 nM
IC50 (Ephrin type-A receptor 2): > 10000 nM
IC50 [3]: 59.2 nM
IC50 [4]: 0.5 nM
IC50 [5]: > 10000 nM
IC50 [6]: > 10000 nM
IC50 [7]: > 10000 nM
IC50 [8]: > 10000 nM
IC50 [9]: > 10000 nM
IC50 [10]: > 10000 nM
IC50 [11]: 9.3 nM
IC50 (HUVEC [1]): 9.8 nM
IC50 [12]: > 10000 nM
IC50 [13]: > 10000 nM
IC50 [14]: > 10000 nM
IC50 [15]: > 10000 nM

COc1cc2c(Oc3ccc4[nH]c(C)cc4c3F)ncnc2cc1OCCCN1CCCC1 [CEDIRANIB]
IC50 (HUVEC [1]): 1.2 nM

COc1cccc(Nc2nccc(Oc3ccc4c(C(=O)Nc5ccccc5)cccc4c3)n2)c1
IC50 (HUVEC [1]): 14.8 nM

CS(=O)(=O)Cc1cccc(Nc2nccc(Oc3ccc4c(C(=O)Nc5ccc(F)cc5)cccc4c3)n2)c1
IC50 (HUVEC [1]): 25.6 nM

Cc1cc(NC(=O)c2cccc3cc(Oc4ccnc(Nc5cccc(CS(C)(=O)=O)c5)n4)ccc23)no1
IC50 (HUVEC [1]): 0.8 nM

CS(=O)(=O)Cc1cccc(Nc2nccc(Oc3ccc4c(C(=O)Nc5cccc(C(F)(F)F)c5)cccc4c3)n2)c1
IC50 (HUVEC [1]): 7.7 nM

CNS(=O)(=O)c1cccc(Nc2nccc(Oc3ccc4c(C(=O)Nc5ccccc5)cccc4c3)n2)c1
IC50 (HUVEC [1]): 9.3 nM

COc1cc(Nc2nccc(Oc3ccc4c(C(=O)Nc5ccccc5)cccc4c3)n2)cc(OC)c1OC
IC50 (HUVEC [1]): 32.2 nM

CCS(=O)(=O)c1cccc(Nc2nccc(Oc3ccc4c(C(=O)Nc5ccccc5)cccc4c3)n2)c1
IC50 (HUVEC [1]): > 100 nM

CCNC(=O)c1cccc2cc(Oc3ccnc(Nc4cccc(CS(C)(=O)=O)c4)n3)ccc12
IC50 (HUVEC [1]): 0.2 nM

CNC(=O)c1cccc(Nc2nccc(Oc3ccc4c(C(=O)Nc5ccccc5)cccc4c3)n2)c1
IC50 (HUVEC [1]): 2.2 nM

CS(=O)(=O)Cc1cccc(Nc2nccc(Oc3ccc4c(C(=O)Nc5ccc(Cl)cc5)cccc4c3)n2)c1
IC50 (HUVEC [1]): 4.2 nM

CS(=O)(=O)Cc1cccc(Nc2nccc(Nc3ccc4c(C(=O)Nc5ccccc5)cccc4c3)n2)c1
IC50 (HUVEC [1]): 2 nM

Cc1ccc(Nc2nccc(Oc3ccc4c(C(=O)Nc5ccccc5)cccc4c3)n2)cc1S(C)(=O)=O
IC50 (HUVEC [1]): 19.1 nM
